Test results taken from US7655447B2, “ZSIG33-like polynucleotides” (ZymoGenetics, Inc., priority 2000, dated 2010).

Tested on: antral portion of the stomach
Assay: Gastric contractility: distance between transducing crystals on the antral stomach
Format: in vivo, Sprague-Dawley rats
Settings: urethane-anesthetized rats
Excerpt: Two male Sprague-Dawley rats, approximately 12 weeks old (Harlan, Indianapolis, Ind.) are anesthetized with urethane and their stomachs are exposed through a small abdominal incision. Two 2.4 mm transducing crystals (Sonometrics, Ontario, Canada) are placed on the antral portion of the stomach such that circular contractions could be monitored as a change in the distance between the two crystals. The crystals are attached with VETBOND TISSUE ADHESIVE (3M, St. Paul, Minn.). […] The amplitude of the NE-induced decrease is approximately 50% of the acetylcholine-induced increase in distance. Both responses are transient. A negative control of 10 μl of phosphate buffer solution (PBS) applied topically between the crystals has no effect. […] The ZS33LP at 1 μg induces a sustained, rhythmic increase and decrease in crystal distance.

For `NC[C@H](O)c1ccc(O)c(O)c1` [norepinephrine], the “change in the distance between the two crystals (circular contractions)” value (10 μl of 1 μM applied topically to the stomach between the crystals) was “reduction in the distance between the two crystals” and the “amplitude of the NE-induced decrease relative to the acetylcholine-induced increase in distance” value (10 μl of 1 μM applied topically) was “approximately 50%”.
